Patent US20180050093A1, “LEPTIN ACTIVE PEPTIDE HAVING D HELIX REGION MUTATIONS, CODING GENE THEREOF, AND APPLICATION THEREOF” (SUN YAT-SEN UNIVERSITY, priority 2015, published 2018)

Test system: 3T3-L1 preadipocytes
Experiment: In-vitro lipid-lowering (adipocyte-degrading) activity analysis, MTT detection
Format: cell-based
Conditions: for adipocyte lysis activity vs. negative control (Control, PBS): FIG. 2 mark a
Description: Preadipocytes: induced preadipocytes stage; D0-D2: 0-2nd day of induced differentiation (an early stage of differentiation); D9: the 9th day of induced differentiation (a mature adipocyte stage).
1.2 In-Vitro Lipid-Lowering Activity Analysis of the Leptin Active Peptide
Lipid degradation activity of the synthesized leptin active peptide having helix D region mutation is analyzed on a cellular level by taking a 3T3-L1 preadipocyte line as a model. Specific operations are as follows:
b: an early differentiation stage D0-D2 (0-2nd day of induced differentiation); and
c: a mature adipocyte stage D9 (the 9th day of induced differentiation);
a. leptin active peptide having helix D region mutation (PEP-D): diluted to […] with purified water and preserved at −20° C. for later use. After an experiment is started, working concentrations have 3 concentration gradients, that is, 10^−6M, 10^−9M and 10^−11M;
b. positive control. I: H-LEP, recombinant human-derived leptin protein (10221-HNAE, Beijing Sino Biological Inc.), diluted to 10^−6M with purified water and preserved at −20° C. for later use. After an experiment is started, the working concentration is 10^−9M;
c. positive control 2: Ros (rosiglitazone,R2408,Sigma), diluted to a stock solution with a concentration of 2518 μM with DMSO and preserved at −20° C. for later use. After an experiment is started, the stock solution is diluted to a working solution of 0.5 μM with cell culture fluid;
d. negative control (Control): equivalent quantity of PBS
(1) Inoculating 3T3-L1 preadipocytes in corning cell bind 96-well plates (totally inoculated with 3 plates, respectively plate a, plate b and plate c), wherein the inoculation density is 4500 cells/well; and marking, and standing and culturing at 37° C. in a 5% CO2 incubator. Each sample of each plate is operated repeatedly for 3 times, and the whole experiment is repeated for 3 times;
(2) Continuously culturing for 48 hours after the cells are merged to 100% (enabling the cells to exit from a growth cycle, and starting induced differentiation); and
i, taking out the plate a; respectively adding different amounts of leptin active peptide having helix D region mutation (PEP-D) to enable the working concentrations to be respectively 3 concentration gradients, that is, 10^−6M, 10^−9M and 10^−11M; setting 2 positive controls, a negative control (PBS) and a blank control (3 repeated holes are set for each sample), and continuously standing and culturing at 37° C. in the 5% CO2 incubator.
ii, when culturing to 45 hours (that is, 3 hours before the end of drug treatment), taking out the plate a, and measuring MTT (preadipocytes). Specific operations: adding 20 μL of 5 mg/mL of MTT solution into each well, continuously standing and culturing at 37° C. in the 5% CO2 incubator for 3 hours, sucking and discarding the culture solution in the wells, adding 150 μL of DMSO into each well, horizontally shaking for 10 min, detecting a light absorption value at 492 nm by a microplate reader, and drawing a growth curve;
i, taking out the plate b; adding the differentiation induced liquid I (D0); respectively adding the leptin active peptide having helix D region mutation (PEP-D); setting 2 positive controls, a negative control (PBS) and a blank control (3 repeated holes are set for each sample), and continuously standing and culturing at 37° C. in the 5% CO2 incubator.
ii, when culturing to 45 hours (that is, 3 hours before the end of drug treatment), taking out the plate b, and measuring MTT (at the early differentiation stage, D0-D2). Specific operations: adding 20 μL, of 5 mg/mL of MTT solution into each well; continuously standing and culturing at 37° C. in the 5% CO2 incubator for 3 hours; sucking and discarding the culture solution in the wells; adding 150 μL of DMSO into each well; horizontally shaking for 10 min; detecting a light absorption value at 492 nm by the microplate reader; and drawing a growth curve; […]

[1] = P<0.05, H-LEP 10^−9M, Ros 0.5 μM

Row | Compound | adipocyte lysis activity vs. negative control (Control, PBS) [1] | adipocyte lysis activity vs. H-LEP (FIG. 2 mark b, P<0.05) | adipocyte lysis activity vs. Ros (FIG. 2 mark c, P<0.05) | adipocyte-degrading activity compared with the positive controls H-LEP and Ros (MTT, three cell differentiation stages (preadipocytes, early differentiation D0-D2, mature adipocyte D9), PEP-D 10^−6M, 10^−9M, 10^−11M, H-LEP 10^−9M, Ros 0.5 μM) | concentration dependence of lipid-lowering activity (MTT, working concentrations 10^−6M, 10^−9M and 10^−11M) | cell lysis effects at cell stages (preadipocytes stage, differentiation stage (D0-D2), mature adipocyte stage (D9))
1 | CN(CCOc1ccc(CC2SC(=O)NC2=O)cc1)c1ccccn1 (stereo not shown) [Ros, rosiglitazone, reference compound] | obviously better than that of the negative control |  |  |  |  | 
2 | H-LEP: recombinant human-derived leptin protein (10221-HNAE, Beijing Sino Biological Inc.), positive control | obviously better than that of the negative control |  |  |  |  | 
3 | STEVVALDGLQGSLQTMLLQLEYS (An amino acid sequence of the leptin active peptide having helix D region mutation) [PEP-D] |  | obviously better than that of the H-LEP | obviously better than that of the Ros | obviously better than that of positive control-human-derived leptin protein (H-LEP) and a commercially available drug rosiglitazone (Ros) | obvious concentration dependence | obvious cell lysis effects at three stages
